From PubChem BioAssay AID1963426 (Molecular Pharmacology Branch, DTP, NCI, 2024)

Tested on: 186277-243-T-J2-PDC complex spheroid growth, % test/control
Experiment: Anticancer human tumor 186277-243-T-J2-PDC patient-derived colon adenocarcinoma cell line growth inhibition [Asc]
Conditions: for IC50: curve of first compound; for viability, T/C: stronger effect = lower value; active = viability on the fitted dose curve at most 10% of control; inactive = the rest
Experimental: Multicellular complex tumor spheroid response to apoptosis pathway targeting inhibitors Alrizomadlin, Pelcitoclax, and Dasminapant in combination with a variety of drugs and investigational agents in selected tumor cell lines
The MDM2 inhibitor alrizomadlin, the Bcl-2/Bcl-xL inhibitor pelcitoclax, and the IAPs inhibitor dasminapant were evaluated both individually and in combination with standard of care and investigational anticancer small molecules within a complex spheroid model of solid tumors. . Complex spheroids include a stromal component modeled by human endothelial cells (HUVEC) and fibroblasts modeled by human mesenchymal stem cells (MSCs). The concentration ranges selected for each drug and investigational agent were based upon clinically achievable concentrations if the clinical Cmax of the agent was known.
Compounds. The drugs and investigational agents: alrizomadlin (APG-115; NSC831270), pelcitoclax (APG-1252; NSC835773), dasminapant (APG-1387;NSC834197), TAK-243 (NSC785004), copanlisib (NSC809693), olaparib (NSC753686), talazoparib (NSC767125), cobimetinib (NSC 768068), eltanexor (KPT-8602, NSC 794443), abemaciclib (NSC 768073), sotorasib (NSC818433), adagrasib (NSC 831453), MRTX-1133 (NSC 836407), Iadademestat (ORY1001, NSC 806812), and RMC-4630 (NSC839698), were obtained from the NCI Developmental Therapeutics Program Chemical Repository. The FDA-approved anticancer drug set is available from the Developmental Therapeutics Program at https://dtp.cancer.gov/organization/dscb/obtaining/available plates.htm. […] The stock solutions were prepared in dimethyl sulfoxide (DMSO, Sigma-Aldrich, St. Louis, MO, cat. D2650) at 800-fold the tested concentration and stored at -70 degrees C prior to their use. All drugs and investigational agents were tested over a range starting from a high concentration at or near the clinical Cmax and decreasing in half-log increments. If the clinical Cmax for an agent had not been determined, the highest concentration tested was 10 microM.
The patient-derived cancer (PDC) cell lines include five colon adenocarcinomas: 186277-243-T-J2-PDC, 616215-338-R-J1-PDC, 439559-082-T-J2-PDC, 463943-066-T-J2-PDC, and 519858-162-T-J1-PDC; three pancreatic carcinomas: 323965-272-R-J2-PDC, 521955-158-R6-J3-PDC, and 521955-158-R2-J5-PDC; two uterine sarcomas: 327498-152-R-J2-PDC and 993429-296-R-J1-PDC; two rhabdomyosarcomas: 755483-174-R-J1-PDC and 772245-204-R-J1-PDC; two soft tissue sarcomas: 126254-015-R-J1-PDC and 494315-158-R-J1-PDC; two malignant fibrous histiocytomas: 317291-083-R-J1-PDC and 596521-263-R-J1-PDC; two breast carcinomas: 171881-019-R-J1-PDC and 885512-296-R-J2-PDC; and one ovarian carcinoma: 6556581-035-R-J-PDC were obtained from the NCI PDMR, (https://pdmr.cancer.gov). The established cell lines HSSY-2 synovial sarcoma (RRID:CVCL 8719), SYO-1 synovial sarcoma (RRID:CVCL_7146), MPNST malignant peripheral neural sheath tumor were obtained from the Sloan Kettering Institute. The following established cell lines were purchased from the American Type Culture Collection (ATCC, Manassas, VA), Sor the received from the NCI repository:, PANC-1 pancreatic carcinoma (CRL-1469, RRID:CVCL_0480), OVCAR-5 ovarian carcinoma (RRID:CVCL_1628), OVCAR-8 ovarian carcinoma (RRID:CVCL_1629), , MCF-7 breast carcinoma (CRL-12584, RRID:CVCL_0031), MDA-MB-231 breast carcinoma (CRL-12532, RRID:CVCL_0062), NCI-H1876 small cell lung carcinoma (CRL-5902, RRID:CVCL_1503), NCI-H510A small cell lung carcinoma (HTB-184, RRID:CVCL_1565), NCI-H1417 (CRL-5869, RRID:CVCL_1469), and NCI-H196 small cell lung carcinoma (CRL-5823, RRID:CVCL_1509). Dr. Peter Houghton (Greehey Children's Cancer Research Institute, University of Texas Health Science Center, San Antonio, TX) provided Rh-18 rhabdomyosarcoma (RRID:CVCL_1659). Pooled donor human umbilical vein endothelial cells (HUVEC, Lonza, cat. CC-2519) and human mesenchymal stem cells (hMSC, Lonza, cat. PT-2501) were purchased from Lonza (Walkersville, MD).
Cell Culture. […]
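Note: spheroids exposed to agents for 7 days.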
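Throughout, for viability, T/C: 100% = DMSO vehicle control wells.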

Cn1ncnc1[C@H]1c2n[nH]c(=O)c3cc(F)cc(c23)N[C@@H]1c1ccc(F)cc1 + CCN1C(C(=O)NC23CCC(C(=O)O)(CC2)CC3)C(c2cccc(Cl)c2F)C2(C(=O)Nc3cc(Cl)ccc32)C12CCCCC2
> 100 nM: IC50 (second compound 0.03 µM) | IC50 (second compound 0.0949 µM) | IC50 (second compound 0.3 µM)
inactive: viability, T/C (second compound 0.03 µM, first compound 0.000316 µM) 130% | viability, T/C (second compound 0.03 µM, first compound 0.001 µM) 116% | viability, T/C (second compound 0.03 µM, first compound 0.00316 µM) 107% | viability, T/C (second compound 0.03 µM, first compound 0.01 µM) 91.3% | viability, T/C (second compound 0.03 µM, first compound 0.0316 µM) 80.9% | viability, T/C (second compound 0.03 µM, first compound 0.1 µM) 87.2% | viability, T/C (second compound 0.0949 µM, first compound 0.000316 µM) 98.3% | viability, T/C (second compound 0.0949 µM, first compound 0.001 µM) 82.1% | viability, T/C (second compound 0.0949 µM, first compound 0.00316 µM) 87.6% | viability, T/C (second compound 0.0949 µM, first compound 0.01 µM) 77.5% | viability, T/C (second compound 0.0949 µM, first compound 0.0316 µM) 76.5% | viability, T/C (second compound 0.0949 µM, first compound 0.1 µM) 65.8% | viability, T/C (second compound 0.3 µM, first compound 0.000316 µM) 75% | viability, T/C (second compound 0.3 µM, first compound 0.001 µM) 69% | viability, T/C (second compound 0.3 µM, first compound 0.00316 µM) 65.9% | viability, T/C (second compound 0.3 µM, first compound 0.01 µM) 63.6% | viability, T/C (second compound 0.3 µM, first compound 0.0316 µM) 63.1% | viability, T/C (second compound 0.3 µM, first compound 0.1 µM) 59.3% | viability, T/C (second compound 0.949 µM, first compound 0.000316 µM) 52.4% | viability, T/C (second compound 0.949 µM, first compound 0.001 µM) 56.5% | viability, T/C (second compound 0.949 µM, first compound 0.00316 µM) 49.4% | viability, T/C (second compound 0.949 µM, first compound 0.01 µM) 43% | viability, T/C (second compound 0.949 µM, first compound 0.0316 µM) 42% | viability, T/C (second compound 0.949 µM, first compound 0.1 µM) 41.4% | viability, T/C (second compound 3 µM, first compound 0.000316 µM) 30.1% | viability, T/C (second compound 3 µM, first compound 0.001 µM) 32.3% | viability, T/C (second compound 3 µM, first compound 0.00316 µM) 31.9% | viability, T/C (second compound 3 µM, first compound 0.01 µM) 26% | viability, T/C (second compound 3 µM, first compound 0.0316 µM) 22.9% | viability, T/C (second compound 3 µM, first compound 0.1 µM) 25.8%
< 0.316 nM: IC50 (second compound 3 µM)
2.14 nM: IC50 (second compound 0.949 µM)
